What was measured:
[1] = shake flask on a mixture of 185; loss from the water phase only; LC-Orbitrap peak areas; conditions: room
[2] = shake flask on a mixture of 185; loss from the water phase only; LC-QTOF peak areas; conditions: room

Compound	log partition 1-octanol / HPLC water, unbuffered, traces of methanol / DMSO [1] [log10]	log partition butyl acetate / HPLC water, unbuffered, traces of methanol / DMSO [1] [log10]	log partition chloroform / HPLC water, unbuffered, traces of methanol / DMSO [1] [log10]	log partition cyclohexane / HPLC water, unbuffered, traces of methanol / DMSO [1] [log10]	log partition dichloromethane / HPLC water, unbuffered, traces of methanol / DMSO [1] [log10]	log partition n-hexane / HPLC water, unbuffered, traces of methanol / DMSO [1] [log10]	log partition n-octane / HPLC water, unbuffered, traces of methanol / DMSO [1] [log10]	log partition n-undecane / HPLC water, unbuffered, traces of methanol / DMSO [1] [log10]	log partition oleylalcohol / HPLC water, unbuffered, traces of methanol / DMSO [1] [log10]	log partition toluene / HPLC water, unbuffered, traces of methanol / DMSO [1] [log10]	log partition 1-octanol / HPLC water, unbuffered, traces of methanol / DMSO [2] [log10]	log partition butyl acetate / HPLC water, unbuffered, traces of methanol / DMSO [2] [log10]	log partition chloroform / HPLC water, unbuffered, traces of methanol / DMSO [2] [log10]	log partition cyclohexane / HPLC water, unbuffered, traces of methanol / DMSO [2] [log10]	log partition dichloromethane / HPLC water, unbuffered, traces of methanol / DMSO [2] [log10]	log partition n-hexane / HPLC water, unbuffered, traces of methanol / DMSO [2] [log10]	log partition n-octane / HPLC water, unbuffered, traces of methanol / DMSO [2] [log10]	log partition n-undecane / HPLC water, unbuffered, traces of methanol / DMSO [2] [log10]	log partition oleylalcohol / HPLC water, unbuffered, traces of methanol / DMSO [2] [log10]	log partition toluene / HPLC water, unbuffered, traces of methanol / DMSO [2] [log10]
CN/C(=N/[N+](=O)[O-])NCC1CCOC1 (stereo not drawn)	0.006708	0.08365	0.01252	-0.8947	0.2723	-0.6643	-1.349	-1.639	-0.3931	-0.3042	-0.7277	-1.391	-0.45	-1.158	-0.07832	-1.181	-1.698	-1.902	-1.007	-1.236
CCc1nn(C)c(C(=O)NCc2ccc(C(C)(C)C)cc2)c1Cl	1.459	1.634	0.2173	0.942	3.08	0.5625	1.395	0.9075	1.51	1.132	0.9057	1.589	1.982	2.337	2.036	2.449	2.089	1.893	0.96	1.518
Nc1cc2c3c(c1)C(c1ccccc1)=N[C@@H](NC(=O)c1cccnc1)C(=O)N3CC2	1.8	1.849	1.811	-0.6201	1.949	-0.5688	-0.5885	-0.7259	1.341	0.4674	1.4	1.224	1.953	-0.8456	2.001	-0.527	-1.018	-1.615	1.111	0.4515
COC(=O)C(C)N(C(=O)c1ccco1)c1c(C)cccc1C (stereo not drawn)	1.653	2.039	1.758	–	1.796	–	–	–	1.315	1.918	2.113	2.322	2.434	–	2.829	–	–	–	2.215	2.516
Cc1oncc1C(=O)Nc1ccc(C(F)(F)F)cc1	1.455	1.635	1.002	0.009613	1.347	-0.1226	-0.1369	-0.387	1.068	0.7892	2.576	3.034	2.805	0.2033	2.511	0.07872	0.112	0.08618	2.816	2.381
Cc1cc(C)nc(NS(=O)(=O)c2ccc(N)cc2)n1	-0.03015	-0.1328	0.1061	-0.9043	-0.3816	-0.631	-0.6854	-0.8904	-0.3433	-1.077	-0.08641	-0.1162	-0.2658	-0.9757	-0.5411	-1.336	-1.319	-1.455	-0.5276	-1.085
CCNC(=O)C1CC(C)CCC1C(C)C (stereo not drawn)	0.07926	-0.1005	0.05708	–	-0.08543	–	–	–	-0.02549	-0.1964	1.736	1.72	1.704	–	1.778	–	–	–	1.811	1.717
CCc1ccc(C(=O)NN(C(=O)c2cc(C)cc(C)c2)C(C)(C)C)cc1	1.544	1.55	1.889	2.061	1.493	1.296	1.432	1.36	0.7925	1.17	1.362	1.733	1.756	1.284	1.824	1.035	0.9128	0.8541	1.649	1.989
